Values after ≈ are worked out from the molar mass of the structure shown.
Key:
[1] = Inhibition of recombinant N-terminal His/MBP-tagged NDM-1 (unknown origin) expressed in Escherichia coli BL21 (DE3) measured immediately by spectrophotometry
[2] = tested on: Escherichia coli DH5[alpha]; test: Inhibition of Escherichia coli DH5alpha NDM-1 assessed as MIC of meropenem at 8 mg/L by CLSI based microdilution method
[3] = tested on: Escherichia coli DH5[alpha]; conditions: dose 32.0 mg/L
Escherichia coli = test: microbe, parasite or virus in culture; conditions: DH5[alpha]
Description: Antibacterial activity against Escherichia coli DH5alpha assessed as MIC of meropenem at 32 mg/L by CLSI based broth microdilution method (Rvb < 0.25 mg/L)

| Structure (SMILES) | IC50 [1] | MIC [2] | MIC [3] | MIC (Escherichia coli) |
| --- | --- | --- | --- | --- |
| C[C@H](CS)C(=O)N1CCC[C@H](C(=O)O)C1 | 28.4 µM |  |  |  |
| C[C@H](CS)C(=O)N1Cc2ccccc2C[C@@H]1C(=O)O | > 300 µM |  |  |  |
| C[C@H](CS)C(=O)N1CCC(CC(N)=O)CC1 | 27.9 µM |  |  |  |
| C[C@H](CS)C(=O)N1CCc2ccccc2[C@@H]1C(=O)O | 4.6 µM | 8 µg/mL | 4 µg/mL (≈ 14.3 µM) |  |
| C[C@H](CS)C(=O)N1CCCCC[C@@H]1C(=O)O | 20.4 µM |  |  |  |
| C[C@H](CS)C(=O)N1CCC(C(N)=O)CC1 | 11.1 µM |  |  |  |
| O=C(O)[C@H]1CCCN1C(=O)C(CS)CS | 75 µM |  |  |  |
| C[C@H](CS)C(=O)N1CCC(C(=O)O)CC1 | 4.9 µM | 4 µg/mL | 2 µg/mL (≈ 8.65 µM) |  |
| C[C@H](CS)C(=O)N1CCCC[C@@H]1C(=O)O | 6.9 µM | 4 µg/mL | 2 µg/mL (≈ 8.65 µM) |  |
| C[C@H](CS)C(=O)N1CCC(CC(=O)O)CC1 | 19.8 µM |  |  |  |
| O=C(O)CN(CCN(CC(=O)O)CC(=O)O)CC(=O)O [EDETIC ACID] |  | < 0.25 µg/mL | < 0.25 µg/mL | < 0.25 µg/mL |
| C[C@H](CS)C(=O)N1CCC[C@@H]1C(=O)O [D-CAPTOPRIL] | 21.8 µM |  | 4 µg/mL (≈ 18.4 µM) |  |

From ChEMBL document CHEMBL4673350 (Bioorg Med Chem, 2021)
